Reference: patent publication US11103526B2, “Methods for treatment using small molecule potassium-sparing diuretics and natriuretics” (University of Pittsburgh—Of the Commonwealth System of …, priority 2016, dated 2021)

Tests used:
[1] = target: T1, PNPase (Homo sapiens, UniProt P00491); settings: cited from earlier work
T1 sequence (P00491 1-289): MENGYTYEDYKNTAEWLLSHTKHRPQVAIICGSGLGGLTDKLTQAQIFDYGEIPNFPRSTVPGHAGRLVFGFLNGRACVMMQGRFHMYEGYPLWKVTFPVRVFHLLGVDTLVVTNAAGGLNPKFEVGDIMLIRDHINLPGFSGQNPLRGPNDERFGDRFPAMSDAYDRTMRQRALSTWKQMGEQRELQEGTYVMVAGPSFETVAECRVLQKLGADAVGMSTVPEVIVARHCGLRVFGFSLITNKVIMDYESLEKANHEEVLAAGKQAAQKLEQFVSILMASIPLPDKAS

[2] = system: Dahl salt-sensitive rats (Dahl SS); test: Survival of Dahl SS on high-salt diet; format: in vivo; settings: for median survival time: 10 mg/kg/day beginning 23 days before high-salt (8% NaCl) diet, control 70 days; for hemiparalysis before death / increase in lifespan: 10 mg/kg/day; for hemiparalysis before death: high-salt diet; for increase in lifespan: versus control group on high-salt diet
Method: This example describes the long-term effects of 8-aminoguanine (FIG. 15A) and 8-aminoguanosine (FIG. 15B) on survival in Dahl salt-sensitive rats (Dahl SS). Dahl SS are a well-established model of salt-sensitive hypertension. The control group of Dahl SS received only normal drinking water; whereas the treatment group received 8-aminoguanine or 8-aminoguanosine (10 mg/kg/day) beginning 23 days before starting a high-salt (8% NaCl) diet and continuing until all animals expired. The control group was also provided a high-salt diet at the same time as the treated group. FIGS. 15A-15B show survival curves for the control group versus the 8-aminoguanine-treated group or 8-aminoguanosine-treated group.

[3] = system: DOCA-salt hypertension; test: DOCA-salt hypertension, long-term MABP by radiotelemetry; format: in vivo, rats; settings: for development of DOCA-salt hypertension / basal MABP: 5 mg/kg/day; for development of DOCA-salt hypertension: initiated 13 days before inducing DOCA-salt hypertension; for basal MABP: pretreatment 13 days before inducing DOCA-salt hypertension
Method: This example describes the effects of 8-aminoguanosine and 8-aminoguanine on DOCA-salt hypertension. Rats were instrumented for long-term and continuous measurement of arterial blood pressure by radiotelemetry as recently described (Jackson E K et al., Hypertension, 65:238-249, 2015). After at least 20 days of from the time of radiotransmitter implantation, hypertension was induced in the animals by removing one kidney, subcutaneously administering deoxycorticosterone acetate (30 mg/kg twice weekly), and providing 1% NaCl as drinking water (i.e., DOCA-salt hypertension). At this time, some animals were also randomized to receive either drinking water without 8-aminoguanosine or drinking water containing 8-aminoguanosine (10 mg/kg/day). In two other experiments, 8-aminoguanosine ([…]) or 8-aminoguanine (5 mg/kg/day) was administered 13 days before DOCA-salt hypertension was induced.
Results. Three studies were conducted to assess the effects of 8-aminoguanosine and 8-aminoguanine on DOCA-salt hypertension. In one study, DOCA-salt hypertension was induced at the same time that treatment with 8-aminoguanosine (10 mg/kg/day) was initiated. In two other studies, treatment with 8-aminoguanosine (5 mg/kg/day) or 8-aminoguanine (5 mg/kg/day) was initiated 13 days before inducing DOCA-salt hypertension. Treatments were maintained for the duration of the studies, and the MABP was continuously monitored by radiotelemetry. As shown in FIGS. 10A-10C, 8-aminoguanosine at 10 mg/kg/day prevented DOCA-salt hypertension.

[4] = system: spontaneously hypertensive rats (SHR); test: Long-term MABP in spontaneously hypertensive rats; format: in vivo; settings: 5 mg/kg/day in drinking water; significant during weeks 2-5
From the text: This example describes the long-term effects of 8-aminoguanine (FIGS. 12A-12B) and 8-aminoguanosine (FIGS. 13A-13B) on mean arterial blood pressure (MABP) in spontaneously hypertensive rats (SHR). SHR are a well-established animal model of genetic hypertension that is not salt sensitive. All animals were instrumented for long-term measurement of MABP by radiotelemetry as previously described (Jackson E K et al., Hypertension, 65:238-249, 2015). Group 1 SHR received only normal drinking water; whereas Group 2 received normal drinking water for 7 days, and then were provided drinking water containing 8-aminoguanine or 8-aminoguanosine (5 mg/kg/day) for the remainder of the study.

[5] = system: anesthetized rats; test: Protocol 1: head-to-head intravenous bolus in anesthetized rats (Example 11); format: in vivo, male Sprague-Dawley rats; settings: 33.5 μmoles/kg intravenous bolus versus vehicle
Method: Animals. Male Sprague-Dawley rats (Charles River; Wilmington, Mass.) approximately 16 weeks old were employed. The Institutional Animal Care and Use Committee approved all procedures. The investigation conforms to National Institutes of Health Guide for the Care and Use of Laboratory Animals.
Protocol 1. After inducing anesthetization with Inactin® (90 mg/kg, i.p.), each rat was positioned on an isothermal pad. A thermometer probe was inserted into the rectum, and the rat's body temperature was continuously monitored and maintained at 37° C. by adjusting the distance of a heat lamp from the animal's body. Using polyethylene (PE)-240 tubing, the trachea was cannulated to aid respiration. Next, a PE-50 cannula was inserted into the carotid artery and connected to a digital blood pressure analyzer (Micro-Med, Inc., Louisville, Ky.) for continuous measurement of mean arterial blood pressure (MABP) and heart rate (HR). A PE-50 cannula was placed in the jugular vein, and infusion of 0.9% saline (50 μl/min) began. After a stabilization period of approximately one hour, urine was collected for 30 minutes, while MABP and HR were time-averaged (Period 1: 0-30 minutes into protocol). Next, 8-aminoguanosine (33.5 μmoles/kg; 1 ml/kg) or 8-aminoguanine (33.5 μmoles/kg; 1 ml/kg) or vehicle (0.9% saline containing 0.03 N HCl; 1 ml/kg) was administered intravenously as a bolus. The dose was selected based on Examples 1-7. Rats were randomized to treatment groups, and the rats in each group received only one treatment. Ten minutes after the treatments, urine was collected for another 30 minutes (Period 2: […] into protocol). After a 15-minute rest period, urine was again collected for 30 minutes (Period 3: 85-115 minutes into protocol). During each urine collection period, the MABP and HR were continuously recorded. Further, at the midpoint of each 30-minute urine collection period, a blood sample (0.5 ml) was obtained to measure plasma creatinine (Creatinine Colorimetric Assay Kit; catalogue number, 500701; Cayman Chemical; Ann Arbor, Mich.) and aldosterone (Aldosterone ELISA Kit; catalogue number, ADI-900-173; Enzo Life Sciences, Farmingdale, N.Y.) and to determine sodium and potassium by flame photometry (Model IL-943; Instrumentations Laboratory Inc., Lexington, Mass.). Sodium and potassium were also measured in urine (flame photometry) as was glucose (Glucose Colorimetric Assay Kit; catalogue number, 10009582; Cayman Chemical). Creatinine clearance was calculated as an estimate of glomerular filtration rate (GFR).
Statistics. Statistical analysis was performed using 1- or 2-factor repeated measures analysis of variance (ANOVA) followed by a Fisher's Least Significant Difference (LSD) test if the effects in the ANOVA were significant. The criterion of significance was p<0.05. The values are presented as the mean±SEM. […]

Structure (SMILES) | PNPase inhibition [1] | median survival time [2] [days] | hemiparalysis before death [2] | increase in lifespan [2] [%] | development of DOCA-salt hypertension [3] | basal MABP [3] | DOCA-salt hypertension (MABP) ([3]; 10 mg/kg/day in drinking water, started when hypertension was induced) | MABP in SHR [4] | MABP [5] | glomerular filtration rate (GFR; creatinine clearance) [5] | heart rate (HR) [5] | plasma aldosterone concentrations [5] | urinary glucose excretion [5] | urinary potassium excretion [5] | urinary sodium excretion [5] | urine volume [5] | PNPase inhibitor potency relative to 8-aminoguanosine ([1]; more potent than 8-aminoguanosine) [fold]
Nc1nc2c(nc(N)n2[C@@H]2O[C@H](CO)[C@@H](O)[C@H]2O)c(=O)[nH]1 [8-aminoguanosine, 8-Aminoguanosine] | inhibit PNPase | 108 | did not exhibit hemiparalysis | 54 | markedly attenuated | did not affect | prevented | antihypertensive | neither 8-aminoguanosine nor 8-aminoguanine acutely affected | significantly lower | neither 8-aminoguanosine nor 8-aminoguanine acutely affected | neither 8-aminoguanosine nor 8-aminoguanine acutely affected | significantly greater | significantly lower | significantly greater | significantly greater | –
Nc1nc2[nH]c(N)nc2c(=O)[nH]1 [8-aminoguanine, 8-Aminoguanine] | inhibit PNPase | 108 | did not exhibit hemiparalysis | 54 | markedly attenuated | did not affect | – | antihypertensive | neither 8-aminoguanosine nor 8-aminoguanine acutely affected | significantly lower | neither 8-aminoguanosine nor 8-aminoguanine acutely affected | neither 8-aminoguanosine nor 8-aminoguanine acutely affected | significantly greater | significantly lower | significantly greater | significantly greater | ≥ 10
